Test results reported in ChEMBL document CHEMBL1201862, “PubChem BioAssay data set” (2004).
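Interpolation was linear, between the two tested concentrations surrounding the appropriate level; five concentrations were tested over 48 hours in 96-well plates. At the GI50, growth is halved.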 Active and inactive are the calls of the source. No stated cut-off is given here; in the data, active = GI50 up to about 1.1 µM and inactive = higher.

Columns and labels:
Test in all cases: DTP human tumour cell line panel, 48 h
[1] = tested on: MDA-N
[2] = tested on: HT-29
[3] = tested on: 786-0
[4] = tested on: SK-OV-3
[5] = tested on: PC-3
[6] = tested on: OVCAR-4
[7] = tested on: HOP-92
[8] = tested on: UO-31
[9] = tested on: HL-60
[10] = tested on: OVCAR-3
[11] = tested on: OVCAR-5
[12] = tested on: HOP-62
[13] = tested on: T47D
[14] = tested on: HCC 2998
[15] = tested on: SF-295
[16] = tested on: SR
[17] = tested on: SNB-75
[18] = tested on: RXF 393
[19] = tested on: MCF7
[20] = tested on: CAKI-1
[21] = tested on: U-251
[22] = tested on: DU-145
[23] = tested on: K562
[24] = tested on: IGROV-1
[25] = tested on: OVCAR-8
[26] = tested on: TK-10
[27] = tested on: COLO 205
[28] = tested on: SK-MEL-5
[29] = tested on: MOLT-4
[30] = tested on: SW-620
[31] = tested on: KM12
[32] = tested on: Malme-3M
[33] = tested on: NCI-H226
[34] = tested on: SK-MEL-28
[35] = tested on: CCRF-CEM
[36] = tested on: LOX IMVI
[37] = tested on: SK-MEL-2
[38] = tested on: SF-539
[39] = tested on: SN12C
[40] = tested on: SNB-19
[41] = tested on: A549
[42] = tested on: HCT-116
[43] = tested on: Hs-578T
[44] = tested on: M14
[45] = tested on: UACC-257
[46] = tested on: A498
[47] = tested on: MDA-MB-231
[48] = tested on: NCI-H460
[49] = tested on: EKVX
[50] = tested on: NCI-H522
[51] = tested on: BT-549
[52] = tested on: UACC-62
[53] = tested on: ACHN
[54] = tested on: HCT-15
[55] = tested on: NCI/ADR-RES
[56] = tested on: NCI-H23
[57] = tested on: MDA-MB-435
[58] = tested on: SF-268
[59] = tested on: RPMI-8226

`N#Cc1ncc(C(Cl)Cl)nc1Cl` was tested, and the GI50 [1] was 1.5 µM (inactive), the GI50 [2] was 1.74 µM (inactive) and the GI50 [3] was 1.76 µM (inactive). For the same molecule, the GI50 [4] was 3.78 µM (inactive), the GI50 [5] was 1.8 µM (inactive) and the GI50 [6] was 1.85 µM (inactive). The GI50 [7] was 0.00769 µM (active), the GI50 [8] was 1.78 µM (inactive) and the GI50 [9] was 0.748 µM (active). The GI50 [10] was 2.12 µM (inactive), the GI50 [11] was 1.95 µM (inactive) and the GI50 [12] was 3.07 µM (inactive). For the same molecule, the GI50 [13] was 1.76 µM (inactive), the GI50 [14] was 1.69 µM (inactive) and the GI50 [15] was 7.24 µM (inactive). For the same molecule, the GI50 [16] was 1.81 µM (inactive), the GI50 [17] was 2.29 µM (inactive) and the GI50 [18] was 1.75 µM (inactive). The GI50 [19] was 1.94 µM (inactive), the GI50 [20] was 1.4 µM (inactive) and the GI50 [21] was 1.97 µM (inactive). For the same molecule, the GI50 [22] was 8.67 µM (inactive), the GI50 [23] was 1.33 µM (inactive) and the GI50 [24] was 2.09 µM (inactive). For the same molecule, the GI50 [25] was 2.15 µM (inactive), the GI50 [26] was 2.35 µM (inactive) and the GI50 [27] was 1.77 µM (inactive). For the same molecule, the GI50 [28] was 1.75 µM (inactive), the GI50 [29] was 3.37 µM (inactive) and the GI50 [30] was 1.94 µM (inactive). The GI50 [31] was 1.4 µM (inactive), the GI50 [32] was 2.43 µM (inactive) and the GI50 [33] was 9.27 µM (inactive). The GI50 [34] was 1.89 µM (inactive), the GI50 [35] was 0.491 µM (active) and the GI50 [36] was 1.44 µM (inactive). The GI50 [37] was 1.91 µM (inactive), the GI50 [38] was 1.73 µM (inactive) and the GI50 [39] was 1.74 µM (inactive). For the same molecule, the GI50 [40] was 6.38 µM (inactive), the GI50 [41] was 3.24 µM (inactive) and the GI50 [42] was 1.67 µM (inactive). The GI50 [43] was 4.66 µM (inactive), the GI50 [44] was 1.13 µM (inactive) and the GI50 [45] was 1.53 µM (inactive). The GI50 [46] was > 10 µM (inactive), the GI50 [47] was 1.74 µM (inactive) and the GI50 [48] was 1.81 µM (inactive). The GI50 [49] was 1.75 µM (inactive), the GI50 [50] was 0.502 µM (active) and the GI50 [51] was 1.84 µM (inactive). The GI50 [52] was 2.17 µM (inactive), the GI50 [53] was 2.04 µM (inactive) and the GI50 [54] was 1.82 µM. The GI50 [55] was 2.14 µM (inactive), the GI50 [56] was 2.12 µM (inactive) and the GI50 [57] was 1.76 µM (inactive). The GI50 [58] was 2.43 µM (inactive).

For `CCCCCCCCCCCC1NC(N)=NC(CCCO)=C1C(=O)OC` (stereo not given), the GI50 [1] was 2.44 µM (inactive), the GI50 [2] was 1.73 µM (inactive) and the GI50 [3] was 1.83 µM (inactive). For the same molecule, the GI50 [4] was 2.33 µM (inactive), the GI50 [5] was 1.1 µM (active) and the GI50 [6] was 2.97 µM (inactive). For the same molecule, the GI50 [7] was 3.54 µM (inactive), the GI50 [8] was 15.3 µM (inactive) and the GI50 [9] was 1.42 µM (inactive). The GI50 [10] was 2.37 µM (inactive), the GI50 [11] was 6.62 µM (inactive) and the GI50 [12] was 2.82 µM (inactive). For the same molecule, the GI50 [13] was 5.09 µM (inactive), the GI50 [14] was 2.35 µM (inactive) and the GI50 [15] was 2.93 µM (inactive). The GI50 [16] was 3.33 µM (inactive), the GI50 [17] was 2.79 µM (inactive) and the GI50 [19] was 1.79 µM (inactive). The GI50 [20] was 7.06 µM (inactive), the GI50 [21] was 1.67 µM (inactive) and the GI50 [22] was 9.35 µM (inactive). The GI50 [23] was 1.71 µM (inactive), the GI50 [24] was 1.84 µM (inactive) and the GI50 [25] was 2.3 µM (inactive). For the same molecule, the GI50 [26] was 2.23 µM (inactive), the GI50 [27] was 1.88 µM (inactive) and the GI50 [28] was 2.24 µM (inactive). The GI50 [59] was 2.32 µM (inactive), the GI50 [29] was 1.86 µM (inactive) and the GI50 [30] was 1.61 µM (inactive). For the same molecule, the GI50 [31] was 1.61 µM (inactive), the GI50 [32] was 5.12 µM (inactive) and the GI50 [33] was 6.3 µM (inactive). The GI50 [35] was 1.59 µM (inactive), the GI50 [36] was 1.66 µM (inactive) and the GI50 [37] was 1.63 µM (inactive). The GI50 [38] was 2.96 µM (inactive), the GI50 [39] was 2.47 µM (inactive) and the GI50 [40] was 1.83 µM (inactive). The GI50 [41] was 5.92 µM (inactive), the GI50 [42] was 1.92 µM (inactive) and the GI50 [43] was 1.92 µM (inactive). For the same molecule, the GI50 [44] was 1.93 µM (inactive), the GI50 [45] was 3.16 µM (inactive) and the GI50 [46] was 14.6 µM (inactive). For the same molecule, the GI50 [47] was 2.08 µM (inactive), the GI50 [48] was 1.94 µM (inactive) and the GI50 [49] was 16.1 µM (inactive). The GI50 [50] was 1.77 µM (inactive), the GI50 [51] was 4.67 µM (inactive) and the GI50 [52] was 4.38 µM (inactive). The GI50 [53] was 4.22 µM (inactive), the GI50 [54] was 8.22 µM and the GI50 [55] was 17.7 µM (inactive). The GI50 [56] was 2.08 µM (inactive), the GI50 [57] was 1.88 µM (inactive) and the GI50 [58] was 2.48 µM (inactive).
